The subject of one data set is A549. As to the kind of experiment: Cytotoxicity against human A549 cells. It counts as functional, cell-based.
Data set [1] in a line: Chemical stability assessed as half life by HPLC. Type of data set: physicochemical.
The target in data set [2] is T1, Bcl-2-like protein 1 (Homo sapiens, UniProt Q07817). As to the kind of experiment: Inhibition of interaction between GST-tagged Bcl-xl and Bak by fluorescence polarization assay. In general terms: Polarisation of emitted light reports the rotation of a fluorescent probe.
The target of data set [3] is T1, Bcl-2-like protein 1. As to the kind of experiment: Inhibition of interaction between Bcl-xl and Bak by surface plasmon resonance assay. A general note: Surface plasmon resonance follows binding to a sensor surface in real time, without labels.
For data set [4], the target named is T1, Bcl-2-like protein 1. The experiment in a line: Inhibition of interaction between GST-tagged Bcl-xl and Bak by surface plasmon resonance assay.
The test system of a further data set is Staphylococcus aureus. The experiment in a line: Antibacterial activity against methicillin-resistant Staphylococcus aureus STA MU50. It counts as functional.
Another data set deals with HepG2. As to the kind of experiment: Cytotoxicity against human HepG2 cells. Type of data set: functional.

Values after ≈ are worked out from the molar mass of the structure shown.

The text below walks through data of ChEMBL document CHEMBL1143433, “Interaction of kendomycin and semi-synthetic analogues with the anti-apoptotic protein Bcl-xl” (Bioorg Med Chem Lett, 2008).

T1 sequence (Q07817 whole entry): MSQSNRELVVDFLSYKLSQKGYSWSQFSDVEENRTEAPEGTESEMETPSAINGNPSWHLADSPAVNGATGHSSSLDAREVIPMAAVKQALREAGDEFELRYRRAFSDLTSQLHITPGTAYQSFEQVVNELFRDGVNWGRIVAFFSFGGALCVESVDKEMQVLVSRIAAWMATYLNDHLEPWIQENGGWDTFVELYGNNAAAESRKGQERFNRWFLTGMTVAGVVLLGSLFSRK

Usually IC50 stands for the concentration needed to halve the response being measured. For orientation: half-life means the time needed for the level to fall by half in the phase considered. As usually defined, the Emax is the greatest response seen or fitted, relative to the assay's reference. By Kd is commonly meant the constant that tells how readily two partners part at equilibrium. On to `CC1=C2O[C@]34OC5(CCN(C)CC5)O[C@@H]3C2=C(C(=O)C1=O)[C@@H]1O[C@H](CC[C@H](C)/C=C(\C)C[C@@H](C)C[C@@H]4C)[C@H](C)[C@H](O)[C@H]1C`, for which the IC50 turned out to be 14 µM in the data set with A549 and 5 µM on Bcl-2-like protein 1 [2] (read-out: IC50). In addition, in data set [1], the half-life was under 23 h. Further, the Emax on Bcl-2-like protein 1 [2] is 66%. For the same compound, the figures for the Kd at Bcl-2-like protein 1 [3] (read-out: Kd) and at Bcl-2-like protein 1 [4] were 399 µM and 377 µM, respectively.

Turning to `CC1=C2O[C@]34OC5(CCCCC5)O[C@@H]3C2=C(C(=O)C1=O)[C@@H]1O[C@H](CC[C@H](C)/C=C(\C)C[C@@H](C)C[C@@H]4C)[C@H](C)[C@H](O)[C@H]1C`, the IC50 was 24 µM in the data set with A549 and “Not Active” on Bcl-2-like protein 1 [2].

One may read the MIC as the least concentration at which growth counts as inhibited. A lower MIC goes with greater potency. As a reminder, the GI50 is the concentration at which growth is held to half of that of the control. A lower GI50 goes with greater sensitivity of the cells. On to `CC1=C2O[C@]3(O)C=C2C(=C(O)C1=O)[C@@H]1O[C@H](CC[C@H](C)/C=C(\C)C[C@@H](C)C[C@@H]3C)[C@H](C)[C@H](O)[C@H]1C` [KENDOMYCIN], for which the IC50 in the data set with A549 was 16 µM; at Bcl-2-like protein 1 [2] (read-out: IC50) it was 12.3 µM. In data set [1], the half-life was under 2 h. Moreover, at Bcl-2-like protein 1 [2], the Emax turned out to be 70%. Besides, the MIC against Staphylococcus aureus was 3.9 µM (≈ 1.9 µg/mL). The Kd was determined as 1830 µM on Bcl-2-like protein 1 [3] (read-out: Kd) and 528 µM on Bcl-2-like protein 1 [4]. This compound showed a GI50 in the data set on HepG2 of under 0.1 µM.

On to `CC1=C2O[C@]34OC(C)(C)O[C@@H]3C2=C(C(=O)C1=O)[C@@H]1O[C@H](CC[C@H](C)/C=C(\C)C[C@@H](C)C[C@@H]4C)[C@H](C)[C@H](O)[C@H]1C`, for which the IC50 with A549 was found to be 14 µM; at Bcl-2-like protein 1 [2] (read-out: IC50), 9.5 µM. Further, in data set [1], the half-life was under 39 h. Besides, the Emax on Bcl-2-like protein 1 [2] was determined as 22%.

On to `CC1=C(O)C(=O)C2=C(C1=O)C(O)C(=O)[C@@H](C)C[C@H](C)C/C(C)=C/[C@@H](C)CC[C@H]1O[C@@H]2[C@H](C)[C@@H](O)[C@H]1C` (some centres undefined), for which the IC50 was 25 µM in the data set with A549 and 230 µM at Bcl-2-like protein 1 [2] (read-out: IC50). Besides, the Emax at Bcl-2-like protein 1 [2] turned out to be 35%. Also, the Kd entry is “Not Active” on Bcl-2-like protein 1 [3] and 10800 µM on Bcl-2-like protein 1 [4].

As for `CO[C@@]12C=C3C(=C(C)C(=O)C(O)=C3[C@@H]3O[C@H](CC[C@H](C)/C=C(\C)C[C@@H](C)C[C@@H]1C)[C@H](C)[C@H](O)[C@H]3C)O2`, the results for the IC50 with A549 and against Bcl-2-like protein 1 [2] were 9 µM and “Not Active”, respectively.

Take `Cc1cc2c(C(C)C)c(O)c(O)c(C=O)c2c(O)c1-c1c(C)cc2c(C(C)C)c(O)c(O)c(C=O)c2c1O` [GOSSYPOL]: the Kd at Bcl-2-like protein 1 [3] (read-out: Kd) worked out at 338 µM; on Bcl-2-like protein 1 [4], 1.71 µM.
